# Source: patent US5110976A, “Insecticidal composition comprising more than one active ingredient” (priority 1985, dated 1992)
# Legend:
# Tribolium confusum [1] = test: Contact test, mixtures of Ia and Ib of various ratio (Table 13); type: in vivo, flour beetle (Tribolium confusum)
# Experimental: (§1) The active ingredient is dissolved in a 1:2 mixture of oil and acetone; filter paper discs (Whatman No. 1, diameter 9 cm) are impregnated with the solutions of the corresponding stereoisomers and enantiomer-pairs, respectively. The acetone is allowed to evaporate, whereupon the insects are exposed to filter papers discs placed in Petri-dishes. Three parallels are used on each dose and 15 insects are placed into each Petri-dish. The percental mortality is determined after 24 hours. The corrected percent mortality is calculated by means of the Abbot Formula.
# In Table 13 the insecticidal effect of mixtures of enantiomer-pairs Ia and Ib of various ratio is shown on flour beetle (Tribolium confusum). The test method is that disclosed in Example 43.
# Colorado potato beetle = test: Topical test on Colorado potato beetle (Table 14); type: in vivo, Colorado potato beetle (Leptinotersa decemlineata), imago
# Experimental: In Table 14 the activity on Colorado potato beetle is shown.
# The test materials are dissolved in 2-ethoxyethanol (Cellosolve). One 0.3 μl drop of the solution is applied to the abdominal sterna of the imago. The treatment is carried out by using 2 parallels and 10 insects for each dose. […]
# Musca domestica [2] = test: Filter paper disc contact test (Table 11); type: in vivo, house fly (Musca domestica); details: Musca domestica, 24 h
# Experimental: In Table 1 the activity of various stereoisomers of cypermethrin on the house fly (Musca domestica) is shown.
# as §1
# Tribolium confusum [3] = test: Contact test on Tribolium confusum (Table 12); type: in vivo; details: Tribolium confusum, 24 h; for mortality at 330 µg/disc: 0.33 mg/disc; for mortality at 1000 µg/disc: 1.00 mg/disc; for mortality at 3000 µg/disc: 3.00 mg/disc; for mortality at 110 µg/disc: 0.11 mg/disc
# Experimental: as §1
# It appears from Table 12 that the increased activity shown in Example 41 is due to the synergistic effect of the trans-isomers to Tribolium confusum.
# T. confusum [4] = test: Activity as function of time, toxic symptoms (Table 16); type: in vivo, flour beetle (T. confusum), imagos
# Experimental: as §1
# Activity of cypermethrin stereoisomer-pairs as function of time on flour beetle (T. Confusum).
# Flour beetle (T. confusum) imagos are exposed in Petri-dishes according to the method described in Example 43. For each dose 3 parallels are used and 15 animals are applied for each parallel test. In each point of time the insects lying on their backs are counted and the percental results are expressed in Table 16.
# T. confusum [5] = test: Contact method, synergism between stereoisomers (Table 2); type: in vivo; details: Tribolium confusum, 24 h
# Experimental: The stereoisomers are dissolved in a 1:2 mixture of mineral oil and acetone and filter paper discs (Whatman No. 1., diameter 9 cm) are impregnated with the corresponding dosage of the solution of the active ingredient. The acetone is allowed to evaporate and the insects are examined on filter paper discs placed into Petri-dishes. Three parallels are used for each dose and 15 animals are placed in each Petri-dish. Mortality rate is determined after 24 hours. The corrected mortality % data are calculated by means of the Abbot formula.
# The test is carried out on T. confusum and the following results are obtained by the contact method for various active ingredient doses.
# The test is carried out according to the method described in Example 20.
# T. confusum [6] = test: Topical LD50 (Table 3); type: in vivo, 1-2 weeks' old imagos; details: topical, abdominal side
# Experimental: (§2) In Table 3 the LD50 values of the Ig and Ii isomers and those of the Ib isomer-pair are disclosed. The data are topically measured.
# (§3) The active ingredients are dissolved in 2-ethoxyethanol (cellosolve) and 0.3 μl droplets of the solutions are applied onto the dorsal cuticulum of 3-5 days' old female house flies. 10 animals are used and 2 parallels are carried out for each dose. The tests are carried out for 5 dose levels between activity limits of 0% and 100%. After treatment the flies are placed into glass vials. Mortality is determined after 24 hours. Data are transformed to log10 dosage and probit mortality. LD50 and confidence interval values are calculated by linear regression analysis of the log-probit data. The expected values required for the calculation of synergism are obtained by means of harmonic average. The synergistic factor is the quotient of the expected and measured values.
# The active ingredients are dissolved in 2-ethoxyethanol and 0.3 μl droplets of the solutions are applied onto the abdominal side of 1-2 weeks' old imagos. Treatment is carried out with 2 parallels and 20 animals for each dose by using 5 dose levels in the range between activity limits of 0% and 100%. Evaluation and determination of LD50 values and synergistic factors are carried out as described in Example 21.
# Musca domestica [7] = test: Topical LD50 (Table 3); type: in vivo, house fly (Musca domestica), 3-5 days' old females; details: topical, dorsal cuticulum; 24 hours
# Experimental: as §2, §3
SMILES,"24 hours' mortality % (Tribolium confusum [1]; 0.02 mg/disc, 1440 min) [%]",mortality at 330 µg/disc (Tribolium confusum [3]) [%],mortality at 1000 µg/disc (Tribolium confusum [3]) [%],mortality at 3000 µg/disc (Tribolium confusum [3]) [%],% of insects showing toxic symptoms (T. confusum [4]; 30 minutes) [%],"% of insects showing toxic symptoms (T. confusum [4]; 30 minutes, 0.33 mg/disc) [%]","% of insects showing toxic symptoms (T. confusum [4]; 30 minutes, 1.00 mg/disc) [%]","% of insects showing toxic symptoms (T. confusum [4]; 30 minutes, 3.00 mg/disc) [%]",% of insects showing toxic symptoms (T. confusum [4]; 60 minutes) [%],"% of insects showing toxic symptoms (T. confusum [4]; 60 minutes, 0.33 mg/disc) [%]","% of insects showing toxic symptoms (T. confusum [4]; 60 minutes, 1.00 mg/disc) [%]","% of insects showing toxic symptoms (T. confusum [4]; 60 minutes, 3.00 mg/disc) [%]",% of insects showing toxic symptoms (T. confusum [4]; 120 minutes) [%],"% of insects showing toxic symptoms (T. confusum [4]; 120 minutes, 0.33 mg/disc) [%]","% of insects showing toxic symptoms (T. confusum [4]; 120 minutes, 1.00 mg/disc) [%]","% of insects showing toxic symptoms (T. confusum [4]; 120 minutes, 3.00 mg/disc) [%]",% of insects showing toxic symptoms (T. confusum [4]; 180 minutes) [%],"% of insects showing toxic symptoms (T. confusum [4]; 180 minutes, 0.33 mg/disc) [%]","% of insects showing toxic symptoms (T. confusum [4]; 180 minutes, 1.00 mg/disc) [%]","% of insects showing toxic symptoms (T. confusum [4]; 180 minutes, 3.00 mg/disc) [%]",further results
CC1(C)C(C=C(Cl)Cl)C1C(=O)OC(C#N)c1cccc(Oc2ccccc2)c1 (stereo not shown) [5:5],0,–,–,–,–,–,–,–,–,–,–,–,–,–,–,–,–,–,–,–,"24 hours' mortality % (Tribolium confusum [1]; 0.06 mg/disc, 1440 min): 43%; mortality at 250 µg/disc (Tribolium confusum [1]; Tribolium confusum, 24 h, 0.25 mg/disc): 100%; mortality at 1000 µg/disc (Tribolium confusum [1]; Tribolium confusum, 24 h, 1.00 mg/disc): 100%"
CC1(C)C(C=C(Cl)Cl)C1C(=O)OC(C#N)c1cccc(Oc2ccccc2)c1 (stereo not shown) [Ia:Ib = 3:7],20,–,–,–,–,–,–,–,–,–,–,–,–,–,–,–,–,–,–,–,"24 hours' mortality % (Tribolium confusum [1]; 0.06 mg/disc, 1440 min): 81%; 24 hours' mortality % (Tribolium confusum [1]; 0.25 mg/disc): 100%; 24 hours' mortality % (Tribolium confusum [1]; 1.00 mg/disc): 100%; 24 hours' mortality % (Colorado potato beetle; 0.05 μg/beetle): 45%; 24 hours' mortality % (Colorado potato beetle; 0.10 μg/beetle): 65%; 24 hours' mortality % (Colorado potato beetle; 0.20 μg/beetle): 75%; 24 hours' mortality % (Colorado potato beetle; 0.40 μg/beetle): 85%"
CC1(C)[C@H](C(=O)O[C@H](C#N)c2cccc(Oc3ccccc3)c2)[C@@H]1C=C(Cl)Cl [If],–,100,100,100,0,0,48,64,0,5,84,100,0,40,100,100,39,61,100,100,mortality at 40 µg/disc (Musca domestica [2]; 0.04 mg/disc): 68%; mortality at 110 µg/disc (Musca domestica [2]; 0.11 mg/disc): 93%; mortality at 330 µg/disc (Musca domestica [2]; 0.33 mg/disc): 100%; mortality at 1000 µg/disc (Musca domestica [2]; 1.00 mg/disc): 100%; mortality at 3000 µg/disc (Musca domestica [2]; 3.00 mg/disc): 100%
CC1(C)[C@H](C=C(Cl)Cl)[C@@H]1C(=O)O[C@@H](C#N)c1cccc(Oc2ccccc2)c1 [Ih],–,38,80,100,0,0,0,0,0,0,0,8,0,0,0,67,0,0,0,88,mortality at 110 µg/disc (Tribolium confusum [3]): 0%
CC1(C)[C@@H](C=C(Cl)Cl)[C@@H]1C(=O)O[C@@H](C#N)c1cccc(Oc2ccccc2)c1 [Ii],–,0,71,90,0,0,0,15,0,0,0,70,0,0,0,100,0,0,0,100,mortality at 110 µg/disc (T. confusum [5]; 0.11 mg/disc): 0%; mortality at 330 µg/disc (T. confusum [5]; 0.33 mg/disc): 0%; mortality at 1000 µg/disc (T. confusum [5]; 1.00 mg/disc): 71%; mortality at 3000 µg/disc (T. confusum [5]; 3.00 mg/disc): 90%; LD50 measured (T. confusum [6]): 1291.8 ng/insect; LD50 measured (Musca domestica [7]): 141.9 ng/insect; mortality at 110 µg/disc (Tribolium confusum [3]): 0%
